Read-outs that look alike come from different tables or passages of the source. No end group written: not given here.
Tests used:
[1] = test system: human fibroblastoid line M1 cells; conditions: for Inhibition of cAMP-dependent (2CA-induced) DNA repair induction / genoprotective pathway by pentapeptide: M1 cells preincubated overnight with 50 μg/ml synthetic pentapeptide; for Block of 2CA-triggered DNA repair activity: 10 μM 2CA, co-incubation with various concentrations; for Block of the inhibitory effect of shared epitope peptide (Bead*0401) on 2CA-induced DNA repair: prior incubation of M1 cells: L-NMA 5 mM overnight, KT5823 1 μM 10 min
Description: To further determine the signaling pathways involved in DNA repair induction, the inventors used the Trevigen CometAssay™ kit (Cat. No. 4250-50-K). The CometAssay is a single-cell gel electrophoresis method that can measure a variety of types of DNA damage, and repair of damage, in individual cells. The assay is based on the alkaline lysis of labile DNA at sites of damage. The unwound, relaxed DNA is able to migrate out of the cell during electrophoresis and can be visualized by SYBR Green staining.
To quantify DNA damage, cells were collected and three parallel samples were processed (a negative control, a DNA damage control (H2O2) and a sample subjected to H2O2 following exposure to various modulators of the cAMP signaling pathway). Cells are then washed in PBS. The washed cells are combined with molten low-melting agarose (Trevigen Cat. No. 4250-50-02) and transferred to a CometSlide™ (Trevigen Cat. No. 4250-100-03). The slides are immersed in lysis buffer for 30 min, on ice, in the dark. The slides are then treated with alkali buffer for 20 to 60 min at room temperature in the dark. The slides are then electrophoresed in buffer for 10 min at 20 volts, then fixed in methanol and ethanol. The slides are then stained with SYBR green (Trevigen Cat. No. 4250-50-05) solution and fluorescently imaged with a Diagnostic Instruments digitized camera, mounted on a Nikon Eclipse E400 microscope. Scion Image software is used to quantitate the comet tail intensity. Each data point is derived from tail fluorescent intensity determination in 50–100 individual cells. Data is presented as % DNA repair (the percent decrement in tail fluorescence intensity in agonist or antagonist-treated cells, relative to the intensity recorded in cells treated with H2O2 only)±SEM. (R.U.s)
To directly examine that possibility, cells were incubated overnight with synthetic peptides corresponding to the region contained within amino acids 65–79 and their ability to mount DNA repair activity in response to cAMP-elevating agents was determined. M1 cells were preincubated overnight with 50 μg/ml of synthetic peptides corresponding to the region surrounding the third allelic hypervariable region (aa 65–79) of each of the following DRβ chains: *0401 (65–79*0401) [SEQ ID NO: 5], *0402 (65–79*0402) [SEQ ID NO: 7], *0403 (65–79*0403) [SEQ ID NO: 9] or *0404(65–79*0404) [SEQ ID NO: 10]. At the end of the preincubation, cells were collected, washed and 2CA-induced DNA repair was determined as above. Table 3 (above) lists the different third allelic hypervariable region peptides used in the entire study disclosed here.
A modified method as described previously by Auger et al. [Nature Med 2:306–310 1996] was used. Briefly, cyanogen bromide activated Speharose 4B (1.5 ml) was washed with 1 mM HCl and incubated with peptides in 0.1 M NaHCO3 and 0.5 M NaCl (pH 8) buffer overnight at 4° C. For each peptide, 5 mg was used per milliliter of Sepharose. Free Sepharose groups were blocked with 0.2 M glycine (pH 8) for 2 hours at room temperature. Columns were washed at 4° C. with the following buffers: 0.1 M NaHCO3, 0.5 M NaCl (pH 8) buffer, then 0.5 M CH3COONa (pH 4) buffer and finally PBS at pH 7.5. M1 cells were plated at a density of 0.5×10^6 cells per well (6 well plate) in 10% FBS DMEM medium until 70–80% confluence. Prior to incubation with peptides, cultures were changed to serum-free DMEM medium, then evenly overlaid with 50 μg bead conjugated peptides, and incubated for the indicated period. Soluble peptides were added overnight to M1 cells at a concentration of 50 μg/ml.

[2] = test system: hybrid neuroblastoma-glioma NG108–15 cell line; test: Neuroprotection in acutely stressed NG108–15 cells; assay type: cell-based; conditions: near-confluent NG108–15, 50 μg/ml peptide, 24 hr
Procedure: In order to assess whether shared epitope-containing peptides exert a neuroprotective effect, preliminary experiments were carried out with the hybrid neuroblastoma-glioma NG108–15 cell line. Cells (10^5/ml) were first cultured overnight at near-confluence in 24-well plates in DMEM medium supplemented with 1% fetal calf serum (FCS). Under these conditions, NG108–15 cells show a flat, multipolar morphology and neurite formation. After 20 hours, cells were stressed acutely in serum-free medium (by aspiration of the medium and replacement with serum-free DMEM) with 50 μg/ml of peptides and evaluated morphologically at different time points thereafter. […] Morphological differences between cultures treated with different peptides could be observed as early as 5–6 hrs after treatment. The photographs shown were taken at the 24 hr time point. In another experiment (FIG. 12C), NG108–15 cells were cultured at low cell density (2×10^4/ml) in 1% FCS-containing DMEM medium overnight. The next day cells were subjected to acute stress in serum-free and low glucose (RPMI1640) medium (after aspiration of the 1% FCS DMEM) in the presence of 50 μg/ml of either 65–78*0401 [SEQ ID NO: 6] or 65–78*0402 [SEQ ID NO: 8] peptides. After 72 hours, cells were fixed with 1% formaldehyde and inspected microscopically. Mean±SEM was determined by averaging cell counts in eight randomly-selected microscopic fields in 200× magnification. Neurite-positive cells were defined as cells with one or more projections extending at least twice as long as the cell diameter. […] (FIG. 12C). The calculated number of neurite-positive cells was over 6-fold higher in shared epitope-containing peptide-cultured cells. When cultured in the presence of lysophosphatidic acid or high concentrations of serum, neuronal cells undergo neurite retraction (130). […] Thus, it is concluded that shared epitope-containing peptides may exert neuroprotective effects.

[3] = test system: Protein kinase A (PKA); test: PKA activity in M1 cells after 2CA; assay type: cell-based, human; conditions: M1 cells preincubated with peptide-conjugated beads, 10 μM 2CA
Procedure: Protein kinase A (PKA) was measured using the Life Technologies™ Protein Kinase A (cAMP-dependent Protein Kinase) Assay System (Cat. No. 13128-012). The basis of the assay system is the use of a heptapeptide substrate and a 17-amino acid inhibitor peptide (which is valuable for proving PKA-specific protein kinase activity). Four assay conditions per experimental condition are recommended by the manufacturer (+/− inhibitor and +/− cAMP) to determine total PKA-specific kinase activity and proportion of PKA activated in the cells or tissue of interest. Briefly, the four parallel assay conditions are set up for each of the four assay conditions for a given cell or tissue sample, according to the manufacturer's instructions. Substrate and [γ-^32P]ATP (3000–6000 Ci/mmol stock solution) are then added to each tube, and incubated according to the manufacturer's instructions. Following the incubation period, a sample from each tube is spotted onto a […] disc, which is the acid washed prior to scintillation counting (all according to the manufacturer's instructions). Activity can then be determined as described by the manufacturer of the kit.
B.) PKA activity was determined in M1 cells preincubated with peptide-conjugated beads [Bead*0401, SEQ ID NO: 6; Bead*0402, SEQ ID NO: 8], at different time points following treatment with 10 μM 2CA as above.

[4] = test system: M1 cells; test: Intracellular cAMP level (enzyme immunoassay) in M1 cells after 2CA; assay type: cell-based, human; conditions: M1 cells preincubated 10 min with peptide-conjugated beads, 10 or 100 μM 2CA
Procedure: cAMP was determined by using an Amersham Pharmacia Biotech cAMP enzymeimmunoassay (EIA) system (code RPN 225). The reagents are prepared as described by the manufacturer (lysis reagents 1 and 2, the standard for the non-acetylation assay, the anti-cAMP antiserum, the cAMP peroxidase conjugate and wash buffer). […] Samples are added, followed by the antiserum solution. Following the recommended incubation, cAMP-peroxidase conjugate is added and incubated according to the recommended protocol. Each well is then aspirated and washed, and enzyme substrate is added and incubated. The results can then be read at 630 nm or at 450 nm (depending on the time of incubation and method of stopping the reaction), again according to the manufacturer's protocol.
A.) cAMP levels were assayed in M1 cells that were preincubated for 10 minutes with peptide-conjugated beads [Bead*0401, SEQ ID NO:6; Bead*0402, SEQ ID NO: 8], and intracellular cAMP level changes in response to stimulation with either 10 μM (FIG. 10A, top) or 100 μM (FIG. 10A, bottom) of 2CA were determined at different time points. cAMP levels were measured using a commercial enzyme immunoassay kit from Pharmacia. Results are expressed as fold increase of cAMP above baseline levels.

Gln Arg Arg Ala Ala (QRRAA)
Inhibition of cAMP-dependent (2CA-induced) DNA repair induction / genoprotective pathway by pentapeptide [1]: inhibited completely cAMP-dependent DNA repair induction
Inhibition of cAMP-dependent (2CA-induced) DNA repair induction / genoprotective pathway by pentapeptide ([1]; listed as #2): efficiently inhibited the genoprotective pathway

CCCn1c(=O)[nH]c(=O)c2[nH]cnc21 [enprofylline, reference compound]
Block of 2CA-triggered DNA repair activity [1]: could be blocked

O=S(=O)(NCCNC/C=C/c1ccc(Br)cc1)c1cccc2cnccc12 [H-89, reference compound]
Block of 2CA-triggered DNA repair activity [1]: could also be blocked

Gln Lys Arg Ala Ala (QKRAA)
Inhibition of cAMP-dependent (2CA-induced) DNA repair induction / genoprotective pathway by pentapeptide [1]: had a similar effect
Inhibition of cAMP-dependent (2CA-induced) DNA repair induction / genoprotective pathway by pentapeptide ([1]; listed as #1): efficiently inhibited the genoprotective pathway

Nc1nc2c(nc(Br)n2[C@@H]2O[C@@H]3COP(=O)(O)O[C@H]3[C@H]2O)c(=O)[nH]1 [8-Br-cGMP, 8-bromo-cyclic GMP, reference compound]
Block of 2CA-triggered DNA repair activity [1]: completely blocked

CCCn1c(=O)c2[nH]c(-c3ccc(OCC(=O)NCCN)cc3)nc2n(CCC)c1=O [XAC, reference compound]
Block of 2CA-triggered DNA repair activity [1]: could be blocked

Gln Lys Cys Leu Ala (QKCLA)
Inhibition of cAMP-dependent (2CA-induced) DNA repair induction / genoprotective pathway by pentapeptide [1]: equally effective in suppressing cAMP signaling
Inhibition of cAMP-dependent (2CA-induced) DNA repair induction / genoprotective pathway by pentapeptide ([1]; listed as #5): efficiently inhibited the genoprotective pathway

HBc*0401: recombinant chimeric hepatitis B core protein with insertion of amino acids 65–79 of the β chain encoded by HLA-DRB*0401
Suppression of cAMP signaling (2CA-induced DNA repair) ([1]; M1 cells preincubated overnight with 50 μg/ml recombinant HBc particles): effectively suppressed cAMP signaling

COC(=O)[C@@]1(OC)C[C@H]2O[C@]1(C)n1c3ccccc3c3c4c(c5c6ccccc6n2c5c31)C(=O)N(C)C4 [KT5823, reference compound]
Block of the inhibitory effect of shared epitope peptide (Bead*0401) on 2CA-induced DNA repair [1]: could be blocked

Gln Lys Arg Leu Ala (QKRLA)
Inhibition of cAMP-dependent (2CA-induced) DNA repair induction / genoprotective pathway by pentapeptide [1]: equally effective in suppressing cAMP signaling
Inhibition of cAMP-dependent (2CA-induced) DNA repair induction / genoprotective pathway by pentapeptide ([1]; listed as #3): efficiently inhibited the genoprotective pathway

KDILEDERAAVDTY [65–78*0402, control peptide, amino acids 65–78 of the β chain encoded by the HLA-DRB*0402 allele]
Cell morphology after acute serum-free stress [2]: adjacent cells showed a rounding effect and collapsed into aggregates

Bead*0402: Sepharose beads chemically conjugated to 14-mer peptide, residues 65–78 of DRβ*0402 chain [SEQ ID NO: 8] (KDILEDERAAVDTY; also: conjugated to Sepharose beads)
PKA activation following 2CA [3]: mounted substantial response to the agonist
cAMP level response to 2CA [4]: mounted substantial response to the agonist

Gln Glu Cys Leu Ala (QECLA)
Inhibition of cAMP-dependent (2CA-induced) DNA repair induction / genoprotective pathway by pentapeptide [1]: failed to do so

CNC(=N)NCCC[C@H](N)C(=O)O [L-NMA, NG-methyl-L-arginine, reference compound]
Block of the inhibitory effect of shared epitope peptide (Bead*0401) on 2CA-induced DNA repair [1]: could be blocked

CCCCC[C@H](O)/C=C/[C@H]1[C@H](O)CC(=O)[C@@H]1CCCCCCC(=O)O [PGE1, prostaglandin E1, reference compound]
DNA repair triggered ([1]; M1 cells stimulated 20 min with various concentrations before 100 μM H2O2): triggered in all cases DNA repair

CC(=O)N[C@H](C(=O)O)C(C)(C)SN=O (racemic) [SNAP, S-Nitroso-N-Acetylpenicillamine, reference compound]
Block of 2CA-triggered DNA repair activity [1]: completely blocked
